Measurements reported in PubChem BioAssay AID179 (DTP/NCI, 2004).
Calls of active or inactive are those of the source.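 Rule for the calls: active = compounds giving half or more protection of infected cells from virus-caused growth loss, again on retest; inactive = the rest.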

System: CEM cells HIV-1 protection, formazan growth assay
Assay: NCI AIDS Antiviral Assay
Conditions: for IC50: measured here: growth of uninfected CEM cells
Outline: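 CEM (human) cells, HIV-1 infected vs uninfected, 5-point dosing, formazan growth read-out. Retest threshold 50% protection.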

| Compound | EC50 [µM] | IC50 [µM] | outcome |
| --- | --- | --- | --- |
| Cc1c2ccccc2c(CSCCC(N)C(=O)O)c2ccccc12 (stereo not given) | > 200 | > 200 |  |
| CCCCNC(=O)c1cc(S(=O)(=O)n2cc[nH]c2=O)c(SC)cc1Cl | > 200 | > 200 |  |
| COc1ccc(C2C3C(=O)C=CC(=O)C3[C@@H]2C)cc1OC (stereo not given in full) | > 174 | 13.2 |  |
| COc1cc(OC)nc(NC(=O)NS(=O)(=O)c2cccc3ncn(C)c(=O)c23)n1 |  |  | inactive |
| NC1CC(=O)c2c(Br)csc21 (stereo not given) | > 200 | 50.1 |  |
| CCOC(=O)NP(=O)(N1CC1)N1CC1 | > 200 | > 200 |  |
| CN(C)CCNC(=O)Cn1ccc(=O)c2cc([N+](=O)[O-])ccc21 | > 200 | > 200 |  |
| O=C1OC(/C=C/c2ccccc2)Sc2ccccc21 (stereo not given) |  |  | inactive |
| N=C(N)SCc1cn2ccccc2n1 | > 891 | 50.1 |  |
| C[C@@H]1CC[C@@]2(OC1)O[C@H]1C[C@H]3[C@@H]4CC[C@H]5C[C@@H](OC6OC(CO)C(OC7OC(CO)C(O)C(OC8OCC(O)C(O)C8O)C7OC7OC(CO)C(O)C(O)C7O)C(O)C6O)[C@H](O)C[C@]5(C)[C@H]4CC[C@]3(C)[C@H]1[C@@H]2C (stereo not given in full) | > 2 | 1 |  |
| COc1cc2c(c(O)c1OC)C(=O)[C@@H]1CCC(=O)N1C2 | > 123 | 112 |  |
| O=C(c1ccc(Cl)cc1)c1c(O)c2ccccc2oc1=O | > 200 | > 200 |  |
| CC(C)(C)C1=C(Br)C(OC(=O)C(F)(F)F)(C(C)(C)C)OP1(=O)c1ccccc1 (stereo not given) | > 200 | 74.1 |  |
| c1ccc(C2N=NN(c3ccccc3)C2N2CCCCC2)cc1 (stereo not given) |  |  | inactive |
| c1ccc(-c2ccc(-c3cc4ccccc4[nH]3)cc2)cc1 | > 200 | > 200 |  |
| Cc1nc2ccncc2[nH]1 | > 269 | 191 |  |
| O=[N+]([O-])c1ccc(S(=O)(=O)N/N=C/c2cccc3ccccc23)cc1 | > 51.3 | > 51.3 |  |
| C/C(CC(=O)Nc1ccc(Cl)c(Cl)c1)=N/NC(=O)C[N+](C)(C)C | > 34.7 | > 34.7 |  |
| CCCC1(c2ccccc2)Oc2ccccc2-n2cccc2C1=O (stereo not given) | > 200 | 40.7 |  |
| C=Cc1ccc(C)[n+](C[Si](C)(C)O[Si](C)(C)C)c1 | > 617 | 309 |  |
| O=C1CCCC1CN1CCCC1 (stereo not given) |  |  | inactive |
| Cc1ccc(S(=O)(=O)C2=c3nc4ccccc4cc3=C3C(=O)c4ccccc4C(=O)C32)cc1 (stereo not given) | > 21.9 | > 21.9 |  |
| O=C1OC2(CC1C1(O)C3CC4CC(C3)CC1C4)C1CC3CC(C1)CC2C3 (stereo not given) | > 100 | 38.9 |  |

| Compound | EC50 [µM] | IC50 [µM] | outcome |
| --- | --- | --- | --- |
| CCCCNCCCNCCCNC(=O)c1csc(-c2csc(CCNC(=O)C(NC(=O)C(C)C(O)C(C)NC(=O)C(NC(=O)c3nc(C(CC(N)=O)NCC(N)C(N)=O)nc(N)c3C)C(OC3OC(CO)C(O)C(O)C3OC3OC(CO)C(O)C(OC(N)=O)C3O)c3cnc[nH]3)C(C)O)n2)n1 (stereo not given) |  |  | inactive |
| CS(=O)(=O)NNS(=O)(=O)c1ccccc1 | > 75.9 | > 75.9 |  |
| Cc1cc(S(=O)(=O)Nc2n[nH]c(Nc3ccccc3)n2)c(SCC(=O)O)cc1Cl | > 200 | > 200 |  |
| Cc1cc2oc(=O)cc(C)c2c(=O)o1 | > 200 | > 200 |  |
| Cc1nc2c3c(ncn2n1)Oc1c(c(-c2ccccc2)nn1-c1ccccc1)C3c1ccc(Cl)cc1 (stereo not given) | > 200 | > 200 |  |
| CCN(CC)C(=S)SCCCS(=O)(=O)O |  |  | inactive |
| COc1ccc2oc(=O)c(-c3csc(C)n3)cc2c1 | > 151 | 138 |  |
| CCOC(=O)CCc1c(C)[nH]c2c(C)c3c([nH]c4ccc(Cl)cc43)c(C)c2c1=O | > 200 | 11 |  |
| O=NN1C(c2ccccc2)CNC(=O)CC1c1ccccc1 (stereo not given) |  |  | inactive |
| CS(=O)(=O)O[C@H]1CN2C[C@@H](O)[C@@H](O)[C@H]2[C@H]1CO | > 200 | > 200 |  |
| O=C(CC(O)CCc1ccc(O)c(O)c1)O[C@H]1Cc2c(O)cc(O)cc2O[C@H]1c1ccc(O)c(O)c1 (stereo not given in full) | > 200 | 14.1 |  |
| S=C(N/N=C\c1ccccn1)N(Cc1ccccn1)Cc1ccccn1 | > 2 | 0.955 |  |
| Cc1cc(OC(=O)NCn2cc(-c3ccccc3)nn2)ccc1Cl | > 200 | 95.5 |  |
| COc1c(O)c(C=O)c2c(O)c(-c3c(C)cc4c(C(C)C)c(OC)c(O)c(C=O)c4c3O)c(C)cc2c1C(C)C | > 151 | 2.57 |  |
| COC1=C(OC)C(=O)c2cc(C)c(=O)c(C)cc2C1=O | > 13.2 | 3.98 |  |
| CC(=O)NC(=O)c1ccccc1O | > 724 | 389 |  |
| COc1ccc(-c2cc(-c3ccc4c(c3)CC(C)O4)nc(N)n2)cc1 (stereo not given) | > 30.2 | 20 |  |
| CCOC(=O)C(C(=O)OCC)P(=S)(S)c1ccccc1 (stereo not given) | > 4370 | > 4370 |  |
| COC(=O)c1ccccc1C1CN=NC12Cc1cc(C)ccc1C2=O (stereo not given) | > 200 | > 200 |  |
| C=C1C2CCC3(CCC4C5(C)CCCC4(CN(CCO)C5)C3C2)C1O (stereo not given) |  |  | inactive |
| Cc1cc(N(CCC#N)CCC#N)ccc1/C=N/NC(=O)c1cc(Cl)ccc1O | > 200 | > 200 |  |
| S=c1[nH]c(=S)c2nnn(-c3ccccc3)c2[nH]1 | > 138 | 126 |  |
| O=C(O)C1CCN1Cc1ccc2ccccc2c1O (stereo not given) | > 200 | 195 |  |

| Compound | EC50 [µM] | IC50 [µM] | outcome |
| --- | --- | --- | --- |
| COc1ccc(C2OCCN2C)cc1 (stereo not given) | > 200 | > 200 |  |
| C=C1CC(Cn2cc(Br)c(=O)[nH]c2=O)(c2ccc(Br)cc2)OC1=O (stereo not given) | > 20 | 0.759 |  |
| CCC(C)C(=O)O[C@H]1C(=O)O[C@@H]2C[C@H]3C(C)=CC(=O)[C@@H](O)[C@]3(C)[C@H]3[C@@H](O)[C@H](O)[C@@]4(C)OC[C@]32[C@@H]14 (stereo not given in full) | > 5.25 | 0.00891 |  |
| COc1ccc(N2C(=O)C3c4[nH]c5cc(Cl)ccc5c4C4CCC(C(C)(C)C)CC4C3C2=O)cc1 (stereo not given) | > 200 | 91.2 |  |
| CC1(CF)SCc2nc3ccccc3n21 (stereo not given) | > 200 | > 200 |  |
| O=C1CC(C[C@H](O)C2CCCCC2O)CC(=O)N1Cc1ccccc1 (stereo not given in full) | > 200 | > 200 |  |
| COC1(OC)C2(Cl)C(Cl)=C(Cl)C1(Cl)C1COCC12 (stereo not given) |  |  | inactive |
| O=C1C=CC2=[N+]([O-])C(c3ccccc3)(c3ccccc3)C(=Nc3ccccc3)C2=C1 |  |  | inactive |
| COc1cc(C2c3c(ccc4ccccc34)C(=O)C3CCC(=O)N32)cc(OC)c1O (stereo not given) | > 25.1 | 1.29 |  |
| O=c1c2cc([N+](=O)[O-])cnc2sn1-c1ccc(Oc2ccccc2)cc1 | 37.2 | 43.7 |  |
| COC1C2C=CC(C2)[C@H]1[N+](=O)[O-] (stereo not given in full) |  |  | inactive |
| CN(CO)c1nc(N(C)CO)nc(N(C)CO)n1 | > 26.3 | 24 |  |
| CCCC(O)C(=O)C(CCC)N(CC)CC (stereo not given) | > 1100 | > 1100 |  |
| COc1ccc2c(C(=O)O)cc3ccccc3c2c1OC |  |  | inactive |
| O=C(OC1=C(OC(=O)c2ccc(N=Nc3ccccc3)cc2)c2ccccc21)c1ccc(N=Nc2ccccc2)cc1 | > 200 | > 200 |  |
| NC(CSS(=O)(=O)O)=NCCc1ccccc1 | > 200 | 110 |  |
| CC1=CC(O)(c2ccccn2)P(=O)(c2ccccc2)C=C1C (stereo not given) | > 794 | > 794 |  |
| CC(=O)Oc1cccc2c1C(=O)CCCC2 | > 200 | > 200 |  |
| COc1cc2c(cc1OC)C1Cc3cc(OC)c(OC)cc3N1CC2 (stereo not given) | > 29.5 | 9.12 |  |
| O=C(O)c1ccccc1/C=N\NC1=NCCCCN1 | > 200 | > 200 |  |
| CC(C)=CC(=O)OC1C2C(C)=CC(=O)C(O)C2(C)C2C3(O)OCC24C(CC(=O)OC14)C(C)C3O (stereo not given) | > 0.2 | 0.0112 |  |
| COc1c(NC(=O)CC(C)=O)[c]([Hg][O]C(C)=O)c(OC)c(Cl)[c]1[Hg][O]C(C)=O | > 0.692 | > 0.692 |  |
| CCOC(=O)C1CC2OC2CC1C(=O)OCC (stereo not given) | > 200 | > 200 |  |

| Compound | EC50 [µM] | IC50 [µM] | outcome |
| --- | --- | --- | --- |
| NCCCCCS(=O)(=O)O | > 9330 | > 9330 |  |
| Cc1nc2ccccc2c(-n2cccn2)c1CCn1cccn1 | > 200 | 93.3 |  |
| CC(Nc1cc(Cl)cc(Cl)c1)c1ccncc1 (stereo not given) | > 200 | 15.8 |  |
| CCOC(=O)NC(OC)(C(F)(F)F)C(F)(F)F | > 200 | > 200 |  |
| O=C1/C(=C/c2cccc([N+](=O)[O-])c2)CCc2ccccc21 | > 9.77 | > 9.77 |  |
| COc1cc2c(cc1OC)-c1cc3ccc(OC)c(OC)c3c[n+]1CC2 | > 324 | 145 |  |
| N#Cc1ccc(C=NC23CC4CC(CC(C4)C2)C3)cc1 | > 67.6 | > 67.6 |  |
| O=[N+]([O-])c1c(Br)cc(Br)c2c1Nc1c(ccc(Cl)c1Cl)S2 | > 200 | 4.9 |  |
| CCOC(=O)C1SC(=Nc2ccc(OC)c(OC)c2)N=C1C (stereo not given) | > 22.4 | > 22.4 |  |
| O=C(Nc1ccccc1)N1CCC2N(C(=O)Nc3ccccc3)CCC3N(C(=O)Nc4ccccc4)CCC1N23 (stereo not given) | > 13.2 | > 13.2 |  |
| c1csc(-c2cc(-c3cccs3)c(-c3cccs3)s2)c1 | > 200 | 38.9 |  |
| CC(=O)OCc1cncn1S(=O)(=O)c1ccc(C)cc1 | > 200 | 22.9 |  |
| O=C(Oc1ccc(N=Cc2ccc3c(c2)OCO3)cc1)Oc1ccc(N=Cc2ccc3c(c2)OCO3)cc1 |  |  | inactive |
| CCCC1OC[C@H]2OC(n3cc(C)c(=O)[nH]c3=O)C[C@H]2N1O (stereo not given in full) | 52.5 | > 200 |  |
| O=c1[nH]c(=O)n2c3c1ncn3CC=CC2 | > 35.5 | 17 |  |
| O=S(=O)(Sc1ccc(Cl)cc1)c1ccc(Cl)cc1 | > 20 | 4.27 |  |
| COc1ccc(/C(C)=N/NC(N)=O)cc1 | > 174 | > 174 |  |
| CCc1cc(Cc2ccc(C)c(NC(=O)C(=O)C3C(=O)NC(=O)NC3=O)c2CC)cc(C)c1NC(=O)C(=O)C1C(=O)NC(=O)NC1=O | > 77.6 | > 77.6 |  |
| c1cc(C[S+]2CCCC2)ccc1C[S+]1CCCC1 | > 100 | > 100 |  |
| O=C1CSC(c2cccc(Cl)c2)N1c1ccc(-n2c(-c3ccccc3)nc3ccccc3c2=O)cc1 (stereo not given) | > 200 | 138 |  |
